Here are results for one compound from US20230241075A1, “IRAK DEGRADERS AND USES THEREOF” (Kymera Therapeutics, Inc., priority 2020, published 2023).

“Also recorded” adds a separate entry of the source.

The experiment concerns TLR7/8 agonist R848-stimulated monocytes. Put plainly: Ex-vivo R848-stimulated healthy monocytes, RNA-seq of HS-overexpressed proinflammatory transcripts. The class given is cell-based, human. The settings on record: healthy donor monocytes (N=3), 500 nM overnight, then R848, RNA-seq at 2 hours.

Turning to `Cn1c(=O)n(C2CCC(=O)NC2=O)c2cccc(C#CCOC3CCN(C[C@H]4CC[C@H](n5cc(NC(=O)c6cnn7ccc(N8C[C@H]9C[C@@H]8CO9)nc67)c(C(F)F)n5)CC4)CC3)c21` (stereo partly shown) [Degrader 2], the “effect on TLR-mediated (R848) induction of HS-overexpressed proinflammatory transcripts” value is recorded as “inhibits TLR-mediated induction of HS-overexpressed proinflammatory transcripts; also recorded: inhibits TLR-stimulated upregulation of HS-overexpressed inflammatory genes”.
